Test results as given in patent US20140088039A1, “OPHTHALMIC SOLUTION CONTAINING HYALURONIC ACID OR SALT THEREOF AND PROPYLENE GLYCOL” (priority 2011, published 2014).

System: SV40 immortalized human corneal epithelial cells (HCE-T)
Assay: Evaluation test of protective effect on corneal epithelial cell (drying load)
Type: cell-based
Details: 1 h pre-culture with 0.25% (w/v) propylene glycol and/or 0.03% (w/v) sodium hyaluronate, dried 7.5 minutes, FIG. 1
Procedure: SV40 immortalized human corneal epithelial cells: (HCE-T: RIKEN BioResource Center, Japan, Cell No.: RCB2280) were seeded to a 96-well plate (1×10^4 cells/well) and cultured for one day in an SHEM culture medium. On the next day, the culture medium was replaced with a D-MEM/F12 culture medium containing 0.25% (w/v) propylene glycol, 0.03% (w/v) sodium hyaluronate, or 0.25% (w/v) propylene glycol and 0.03% (w/v) sodium hyaluronate, and thereafter the corneal epithelial cells were cultured for one hour (hereinafter, each also referred to as a “propylene glycol alone group,” a “hyaluronic acid alone group,” or a “propylene glycol/hyaluronic acid combination group”). It is noted that a group that a culture medium was replaced with a D-MEM/F12 culture medium not containing a tested substance and thereafter the corneal epithelial cells were cultured for one hour was defined as a “vehicle group”. After culture, a culture medium of each group was replaced with a D-MEM/F12 culture medium not containing a tested substance and then cells were dried for 7.5 minutes. After drying load, cell viability was measured using Cell Proliferation Assay Kit (manufactured by Promega, catalogue No.: G3580) (corresponding to absorbance of 490 nm).

Molecule	Suppression of decrease in cell viability of corneal epithelial cells due to drying load
sodium hyaluronate [hyaluronic acid]	not sufficiently suppressed
CC(O)CO (centres unmarked) [propylene glycol]	not sufficiently suppressed
